Assay results reported in PubChem BioAssay (NCI).
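1) Cells in 96-well plates. 2) Compound, 48 h, 5 concentrations. 3) Linear interpolation between surrounding doses. 4) Unreached endpoint = highest concentration. Here, GI50 denotes the concentration required for 50% inhibition of growth. TGI: total growth inhibition.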

How the values were obtained:
Assay in all cases: NCI-60 cell line screen, 48 h; in the data active = GI50 below about 0.43 µM; inactive = the rest
DU-145 prostate = test system: DU-145 prostate
EKVX NSCLC = test system: EKVX NSCLC
HCT-15 colon = test system: HCT-15 colon
MDA-MB-231 breast = test system: MDA-MB-231 breast
NCI/ADR-RES ovarian = test system: NCI/ADR-RES ovarian
OVCAR-8 ovarian = test system: OVCAR-8 ovarian
PC-3 prostate = test system: PC-3 prostate
SK-MEL-28 melanoma = test system: SK-MEL-28 melanoma
A498 renal = test system: A498 renal
MALME-3M melanoma = test system: MALME-3M melanoma

CC(C)C1(NC(=O)C2CC3c4cccc5[nH]cc(c45)CC3N(C)C2)OC2(O)C3CCCN3C(=O)C(Cc3ccccc3)N2C1=O (stereo not drawn)
> 100 µM: TGI (DU-145 prostate) | TGI (EKVX NSCLC) | TGI (HCT-15 colon) | TGI (NCI/ADR-RES ovarian) | TGI (OVCAR-8 ovarian) | TGI (PC-3 prostate) | TGI (SK-MEL-28 melanoma)
56.7 µM: TGI (MDA-MB-231 breast)

CCC1CCCCN1CC(C(C)=O)C(c1ccccc1)c1c(O)c2ccccc2oc1=O (stereo not drawn)
> 100 µM: TGI (A498 renal) | TGI (EKVX NSCLC) | TGI (HCT-15 colon) | TGI (MALME-3M melanoma) | TGI (OVCAR-8 ovarian) | TGI (SK-MEL-28 melanoma)

COC1=C(OC)C(=O)C(C/C=C(\C)CC/C=C(\C)CC/C=C(\C)CC/C=C(\C)CC/C=C(\C)CC/C=C(\C)CC/C=C(\C)CC/C=C(\C)CC/C=C(\C)CCC=C(C)C)=C(C)C1=O
> 100 µM: TGI (DU-145 prostate) | TGI (EKVX NSCLC) | TGI (HCT-15 colon) | TGI (MALME-3M melanoma) | TGI (MDA-MB-231 breast) | TGI (NCI/ADR-RES ovarian) | TGI (OVCAR-8 ovarian) | TGI (PC-3 prostate) | TGI (SK-MEL-28 melanoma)
inactive: GI50 (DU-145 prostate) > 100 µM | GI50 (EKVX NSCLC) > 100 µM | GI50 (HCT-15 colon) > 100 µM | GI50 (MALME-3M melanoma) > 100 µM | GI50 (MDA-MB-231 breast) > 100 µM | GI50 (NCI/ADR-RES ovarian) > 100 µM | GI50 (OVCAR-8 ovarian) > 100 µM | GI50 (PC-3 prostate) > 100 µM | GI50 (SK-MEL-28 melanoma) > 100 µM

CS(=O)(=O)c1ccc(COP(N)(=O)N(CCCl)CCCl)cc1 (stereo not drawn)
> 100 µM: TGI (A498 renal) | TGI (HCT-15 colon) | TGI (MALME-3M melanoma) | TGI (OVCAR-8 ovarian) | TGI (SK-MEL-28 melanoma)

COc1ccc(Br)c(CN2CCc3ccccc32)c1OS(=O)(=O)c1ccc(C)cc1
> 100 µM: TGI (EKVX NSCLC) | TGI (HCT-15 colon) | TGI (MALME-3M melanoma) | TGI (OVCAR-8 ovarian) | TGI (SK-MEL-28 melanoma)

COc1ccc(-c2cc3ccccc3[nH]c2=O)cc1OC
> 100 µM: TGI (EKVX NSCLC) | TGI (HCT-15 colon) | TGI (MALME-3M melanoma) | TGI (OVCAR-8 ovarian) | TGI (SK-MEL-28 melanoma)

O=C1CC(C2(O)C(=O)Nc3ccc([N+](=O)[O-])cc32)c2ccccc21 (stereo not drawn)
> 100 µM: TGI (A498 renal) | TGI (EKVX NSCLC) | TGI (MALME-3M melanoma) | TGI (OVCAR-8 ovarian)
37.8 µM: TGI (HCT-15 colon)
62 µM: TGI (SK-MEL-28 melanoma)

CC12OC(C(=O)C13CC3)C1C(=O)c3c(O)ccc(O)c3C(=O)C12 (stereo not drawn)
66.8 µM: TGI (NCI/ADR-RES ovarian)
46.6 µM: TGI (MDA-MB-231 breast)
30.5 µM: TGI (MALME-3M melanoma)
24.7 µM: TGI (HCT-15 colon)
78.7 µM: TGI (SK-MEL-28 melanoma)
36.1 µM: TGI (OVCAR-8 ovarian)
48.3 µM: TGI (EKVX NSCLC)
37.1 µM: TGI (PC-3 prostate)
inactive: GI50 (EKVX NSCLC) 12.1 µM | GI50 (HCT-15 colon) 11 µM | GI50 (MALME-3M melanoma) 13.7 µM | GI50 (MDA-MB-231 breast) 24.6 µM | GI50 (NCI/ADR-RES ovarian) 20.1 µM | GI50 (OVCAR-8 ovarian) 15.6 µM | GI50 (PC-3 prostate) 16.5 µM | GI50 (SK-MEL-28 melanoma) 24.6 µM

CN1CCC(c2c(O)cc(O)c3c(=O)cc(-c4ccccc4Cl)oc23)C(O)C1 (stereo not drawn)
0.598 µM: TGI (MALME-3M melanoma)
active: GI50 (HCT-15 colon) 0.0506 µM
0.6 µM: TGI (SK-MEL-28 melanoma)
> 100 µM: TGI (HCT-15 colon)
0.135 µM: TGI (EKVX NSCLC)

CC(C)(C)c1ccc(C2CC(=O)C3=C(C2)Nc2ccccc2N(C(=O)c2ccccc2Cl)C3c2ccc(F)cc2)cc1 (stereo not drawn)
> 100 µM: TGI (A498 renal) | TGI (DU-145 prostate) | TGI (HCT-15 colon) | TGI (MALME-3M melanoma) | TGI (MDA-MB-231 breast) | TGI (NCI/ADR-RES ovarian) | TGI (OVCAR-8 ovarian) | TGI (PC-3 prostate) | TGI (SK-MEL-28 melanoma)
inactive: GI50 (A498 renal) 1.3 µM | GI50 (DU-145 prostate) > 100 µM | GI50 (HCT-15 colon) > 100 µM | GI50 (MALME-3M melanoma) > 100 µM | GI50 (MDA-MB-231 breast) > 100 µM | GI50 (NCI/ADR-RES ovarian) > 100 µM | GI50 (OVCAR-8 ovarian) > 100 µM | GI50 (PC-3 prostate) 7.01 µM | GI50 (SK-MEL-28 melanoma) > 100 µM

Cc1cc(=O)[nH]c(N/N=C/c2ccccc2O)n1
inactive: GI50 (A498 renal) 20.5 µM | GI50 (DU-145 prostate) 15.3 µM | GI50 (HCT-15 colon) 4.63 µM | GI50 (MALME-3M melanoma) 4.49 µM | GI50 (MDA-MB-231 breast) 6.05 µM | GI50 (NCI/ADR-RES ovarian) 3.52 µM | GI50 (OVCAR-8 ovarian) 3.1 µM | GI50 (PC-3 prostate) 4.95 µM | GI50 (SK-MEL-28 melanoma) 25.3 µM
93.2 µM: TGI (A498 renal)
> 100 µM: TGI (DU-145 prostate) | TGI (HCT-15 colon) | TGI (MALME-3M melanoma) | TGI (MDA-MB-231 breast) | TGI (NCI/ADR-RES ovarian) | TGI (OVCAR-8 ovarian) | TGI (PC-3 prostate) | TGI (SK-MEL-28 melanoma)

CC1=NN(c2ccccc2)C(=O)C12[C@H](c1ccccc1)C2(C#N)C#N (stereo partly drawn)
13.9 µM: TGI (HCT-15 colon)
33.6 µM: TGI (EKVX NSCLC)
9.6 µM: TGI (SK-MEL-28 melanoma)
11.6 µM: TGI (MALME-3M melanoma)
7.27 µM: TGI (OVCAR-8 ovarian)
31.6 µM: TGI (A498 renal)

COc1cc(Cc2c(C)cc(OC)c3[nH]c4ccccc4c23)cc2c1[nH]c1ccccc12
> 25 µM: TGI (HCT-15 colon) | TGI (SK-MEL-28 melanoma)
10.9 µM: TGI (OVCAR-8 ovarian)
12.4 µM: TGI (MALME-3M melanoma)
inactive: GI50 (HCT-15 colon) 6.89 µM | GI50 (MALME-3M melanoma) 4.44 µM | GI50 (SK-MEL-28 melanoma) 8.61 µM

COc1cc(F)c(F)cc1C(=O)c1cnc(NC2CCN(S(C)(=O)=O)CC2)nc1N
inactive: GI50 (A498 renal) 4.62 µM | GI50 (DU-145 prostate) 5.66 µM | GI50 (HCT-15 colon) 3.46 µM | GI50 (MALME-3M melanoma) 2.78 µM | GI50 (MDA-MB-231 breast) 3.04 µM | GI50 (NCI/ADR-RES ovarian) 6.48 µM | GI50 (OVCAR-8 ovarian) 4.43 µM | GI50 (PC-3 prostate) 2 µM | GI50 (SK-MEL-28 melanoma) 4.08 µM
> 21.6 µM: TGI (DU-145 prostate)
11.9 µM: TGI (A498 renal)
> 25 µM: TGI (HCT-15 colon) | TGI (MDA-MB-231 breast) | TGI (NCI/ADR-RES ovarian) | TGI (OVCAR-8 ovarian) | TGI (PC-3 prostate) | TGI (SK-MEL-28 melanoma)
24.2 µM: TGI (MALME-3M melanoma)

N#C/C(=C/N1CCN(C(=O)c2ccco2)C1=S)C(=O)Nc1ccc(Cl)cc1
> 50 µM: TGI (DU-145 prostate) | TGI (HCT-15 colon) | TGI (MALME-3M melanoma) | TGI (MDA-MB-231 breast) | TGI (NCI/ADR-RES ovarian) | TGI (OVCAR-8 ovarian) | TGI (PC-3 prostate) | TGI (SK-MEL-28 melanoma)
inactive: GI50 (DU-145 prostate) 15.9 µM | GI50 (HCT-15 colon) 21.3 µM | GI50 (MALME-3M melanoma) 21.4 µM | GI50 (MDA-MB-231 breast) 18.4 µM | GI50 (NCI/ADR-RES ovarian) 28.1 µM | GI50 (OVCAR-8 ovarian) 20.6 µM | GI50 (PC-3 prostate) 18.9 µM | GI50 (SK-MEL-28 melanoma) 18.7 µM

CCOC(=O)c1sc2c(C(=O)OCC)n3cc(C)cc(C)c3c2c1O
> 100 µM: TGI (MALME-3M melanoma) | TGI (OVCAR-8 ovarian) | TGI (SK-MEL-28 melanoma)
90 µM: TGI (EKVX NSCLC)

O=C(O)c1c2c(cc3c(=O)c4ccccc4[nH]c13)CCCC2
> 100 µM: TGI (EKVX NSCLC) | TGI (HCT-15 colon) | TGI (MALME-3M melanoma) | TGI (OVCAR-8 ovarian) | TGI (SK-MEL-28 melanoma)

CC(=O)OCC1OC(n2c(=O)[nH]c(=O)c3n[nH]nc32)C(OC(C)=O)C(OC(C)=O)C1OC(C)=O (stereo not drawn)
> 100 µM: TGI (A498 renal) | TGI (EKVX NSCLC) | TGI (HCT-15 colon) | TGI (MALME-3M melanoma) | TGI (OVCAR-8 ovarian) | TGI (SK-MEL-28 melanoma)

Cc1cc(=O)[nH]c(NNC(C#N)c2ccccc2O)n1 (stereo not drawn)
> 100 µM: TGI (HCT-15 colon) | TGI (MALME-3M melanoma) | TGI (OVCAR-8 ovarian) | TGI (SK-MEL-28 melanoma)

Cc1cc(Cl)cc2c1NC(=O)C2(O)CC(=O)c1ccc(Br)cc1 (stereo not drawn)
> 70.8 µM: TGI (A498 renal)
97.9 µM: TGI (SK-MEL-28 melanoma)
> 100 µM: TGI (EKVX NSCLC) | TGI (HCT-15 colon) | TGI (MALME-3M melanoma) | TGI (OVCAR-8 ovarian)

CC(C)N(C(=O)C12C3C4C5(C(=O)O)C(C1C35I)C42C(=O)O)C(C)C (stereo not drawn)
> 100 µM: TGI (A498 renal) | TGI (EKVX NSCLC) | TGI (HCT-15 colon) | TGI (MALME-3M melanoma) | TGI (OVCAR-8 ovarian) | TGI (SK-MEL-28 melanoma)

Brc1cc(C2OCCCO2)ccc1OCc1ccccc1
> 100 µM: TGI (A498 renal) | TGI (EKVX NSCLC) | TGI (HCT-15 colon) | TGI (MALME-3M melanoma) | TGI (OVCAR-8 ovarian) | TGI (SK-MEL-28 melanoma)

O=C(O)CSC1=NNC2(C(=O)N1)c1ccccc1-c1ccccc12
> 10 µM: TGI (DU-145 prostate) | TGI (EKVX NSCLC) | TGI (HCT-15 colon) | TGI (MALME-3M melanoma) | TGI (MDA-MB-231 breast) | TGI (NCI/ADR-RES ovarian) | TGI (OVCAR-8 ovarian) | TGI (PC-3 prostate) | TGI (SK-MEL-28 melanoma)
